We go through two molecules from patent publication US7888005B2, “Inhibitors of macromolecular activity” (priority 2003, dated 2011).

Assay [1] deals with E. coli ribonuclease P RNA. The conditions noted are these: literature (Vioque 1989; Mikkelsen et al.); cited from earlier work.
Assay [2] deals with E. coli cell (19R/PTZ) strain containing a single chromosomal copy of the wildtype rnpB gene. Put plainly: Top agar plate screen of extract dilutions, strain 19R/PTZ. It is filed as cell-based. The conditions noted are these: strain 19R/PTZ (single chromosomal rnpB). Here is the method:
(§1) Methods. Different strains of E. coli-DH5alpha (DM46 and PTZ/19R) were streaked onto bacto MacConkey agar base plate containing ampicillin at 50 μg/ml. Then a fresh single colony was grown on 5 ml NZY Ap (50 μg/ml) broth at 37° C. overnight. The next day a frozen cell from the above cells was made. 1 ml of a freshly saturated culture was added to a microcentrifuge tube containing 1 ml DMSO (7%). These cells were stored at −80° C. Cells from frozen stocks were streaked out again and one colony from each plate was transferred to 1 ml NZY(amp, 50 μg/ml) broth. The tubes were shaken at 37° C. overnight.
(§2) Top agar (1% tryptone, 0.8% NaCl, 0.7% agar) was used to distribute cells in a thin layer over the surface of a plate. 100 μl of fresh cell was mixed with 2.5 ml top agar. The mixture was then poured into NZY AP (50 μg/ml). Microtiter dishes containing 96-well, were used to prepare serial dilutions in 10% DMSO (1:5, 1:25, 1:125, 1:625) of extracts. A multi-channel pipeting device was used to add 5 μl extract to the top agar plate. Agar plates containing extract were incubated overnight at 37° C. At the end of incubation, inhibition appeared as clear zone around the place that extract was added. Positive extracts from the initial screens were analyzed further. […]

The subject of assay [3] is strain DM46, which contains the rnpB gene cloned on a high copy plasmid. Nature of the assay: Top agar plate screen of extract dilutions, strain DM46. In kind it is cell-based, E. coli. The conditions noted are these: strain DM46 (multicopy rnpB). Here is the method: as §1, §2

For the molecule `NC[C@@H]1O[C@H](O[C@H]2[C@@H](O)[C@H](O[C@@H]3[C@@H](O)[C@H](N)C[C@H](N)[C@H]3O[C@H]3O[C@H](CN)[C@@H](O)[C@H](O)[C@H]3N)O[C@@H]2CO)[C@H](N)[C@@H](O)[C@@H]1O` [Neomycin B], in assay [1], the “Inhibition of ribonuclease P RNA reaction” value is “micromolar concentrations”.
On to `COc1ccc(C[C@H](N)C(=O)N[C@H]2[C@@H](O)[C@H](n3cnc4c(N(C)C)ncnc43)O[C@@H]2CO)cc1` [puromycin], for which the “Inhibition of growth, in words” value in assay [2] and in assay [3] was “inhibits the growth of both strains” each time. Also, in assay [1], the “Inhibition of ribonuclease P RNA reaction” value was “inhibits the catalytic reaction of ribonuclease P RNA”.
